# Measured values as given in the supplement of paper PMC10307832.
# Legend:
# Experiment in all cases: relative viability (nuclei count vs DMSO), 5 days (fraction); higher = more cells survive
# [1] = compound: C1=CC2=C(C=C(C(=C2N=C1)O)N=NC3=CC4=C(C=C3)C=C(C=C4)S(=O)(=O)O)S(=O)(=O)O + N=C(N)NC(=N)NCCc1ccccc1 [Phenformin] (partner 250 µM)
# Outline: (§1)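 Dosing by pin tool came one day after lung cancer cell lines were seeded in 1536-well plates, using either one drug or a fixed anchor-drug dose plus five library-drug doses (not always all listed) in √10 steps. After 5 days, nuclei were counted on 4× images. Relative viability is treated-well nuclei count divided by vehicle-well nuclei count, and values are medians of duplicate plates.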
# [2] = compound: C1=CC2=C(C=C(C(=C2N=C1)O)N=NC3=CC4=C(C=C3)C=C(C=C4)S(=O)(=O)O)S(=O)(=O)O + COc1cccc2cc(-c3nc([C@H]4CC[C@H](C(=O)O)CC4)n4ncnc(N)c34)[nH]c12 [OSI-027] (partner 0.5 µM)
# Outline: as §1
# AT-7519 + Luminespib = compound: O=C(NC1CCNCC1)c1n[nH]cc1NC(=O)c1c(Cl)cccc1Cl [AT-7519] + CCNC(=O)c1noc(-c2cc(C(C)C)c(O)cc2O)c1-c1ccc(CN2CCOCC2)cc1 [Luminespib] (partner 0.01 µM)
# Outline: as §1
# [3] = compound: C1=CC2=C(C=C(C(=C2N=C1)O)N=NC3=CC4=C(C=C3)C=C(C=C4)S(=O)(=O)O)S(=O)(=O)O + C[C@]1(O)C[C@@H](c2nc(-c3ccc4ccc(-c5ccccc5)nc4c3)c3c(N)nccn32)C1 [Linsitinib] (partner 1 µM)
# Outline: as §1
Cell Line,relative viability ([1]; first compound 0.08 µM),relative viability ([1]; first compound 0.253 µM),relative viability ([1]; first compound 0.8 µM),relative viability ([1]; first compound 2.53 µM),relative viability ([1]; first compound 8 µM),relative viability ([2]; first compound 0.08 µM),relative viability ([2]; first compound 0.253 µM),relative viability ([2]; first compound 0.8 µM),relative viability ([2]; first compound 2.53 µM),relative viability ([2]; first compound 8 µM),relative viability (AT-7519 + Luminespib; first compound 0.01 µM),relative viability (AT-7519 + Luminespib; first compound 0.03162 µM),relative viability (AT-7519 + Luminespib; first compound 0.3162 µM),relative viability (AT-7519 + Luminespib; first compound 1 µM),relative viability ([3]; first compound 0.08 µM),relative viability ([3]; first compound 0.253 µM),relative viability ([3]; first compound 0.8 µM),relative viability ([3]; first compound 2.53 µM),relative viability ([3]; first compound 8 µM)
LU99A,0.989,0.796,0.869,0.721,0.631,0.311,0.301,0.35,0.292,0.296,0.274,0.221,0.223,0.193,0.613,0.559,0.552,0.528,0.522
NCI-H1355,0.484,0.432,0.44,0.481,0.434,0.386,0.46,0.423,0.459,0.452,0.87,0.621,0.564,0.578,0.951,0.79,0.839,0.863,0.817
HCC-78,0.725,0.617,0.651,0.74,0.685,0.436,0.368,0.417,0.346,0.348,–,–,–,–,0.614,0.543,0.496,0.469,0.399
NCI-H1563,0.63,0.677,0.684,0.626,0.629,0.786,0.732,0.818,0.77,0.727,0.526,0.542,0.599,0.538,1.35,1.16,1.29,1.28,1.21
HCC-15,0.491,0.481,0.457,0.422,0.444,0.75,0.675,0.627,0.63,0.65,0.293,0.413,0.343,0.214,0.978,0.874,0.788,0.897,0.878
EKVX,0.237,0.225,0.235,0.232,0.139,0.691,0.682,0.684,0.721,0.539,0.988,0.845,0.846,0.774,1.15,0.956,0.891,1.01,0.927
NCI-H2087,0.469,0.447,0.452,0.455,0.459,0.563,0.536,0.477,0.61,0.682,0.178,0.16,0.141,0.116,1,1.12,0.82,0.964,1.15
LK-2,0.639,0.36,0.303,0.381,0.332,0.21,0.202,0.189,0.211,0.202,0.188,0.159,–,0.189,0.797,0.724,0.551,0.573,0.472
NCI-H1437,0.257,0.242,0.251,0.303,0.317,0.93,0.899,0.889,0.961,0.813,1.17,1.2,1.09,0.745,1.14,1.06,0.99,1.01,1.03
